As usually defined, the kinetic solubility is the concentration staying in solution when a stock, usually in DMSO, is diluted into the medium.

Converted amounts (≈) assume the structure as drawn.

The values below come from PubChem BioAssay AID1996.

The conditions of this data set: buffer; pH 7.4; 200.0 µM.
`CCCC(C)NC(=O)CN1C(=O)c2cccc3cccc1c23` (stereo not drawn) had a kinetic solubility of 8.3 µg/mL (≈ 28 µM). With `C=CCNc1nc2ccccc2nc1NS(=O)(=O)c1ccc(OC)cc1`, the kinetic solubility was determined as 45.9 µg/mL (≈ 124 µM). In turn, `COc1ccc(CCNC(=S)NC(=O)c2ccccc2)cc1C` showed a solubility (kinetic) of 0.8 µg/mL (≈ 2.44 µM). `N#C/C(=C\c1ccc(OCC(N)=O)cc1)C(=O)NC1CC1` returned a kinetic solubility greater than 42.8 µg/mL. In the case of `c1ccc(Nc2ncnc3sccc23)cc1` it was greater than 34.1 µg/mL. Consider `CCOc1ccccc1NC(=O)Cn1c(=O)oc2cc(Cl)ccc21`, for which the solubility (kinetic) was 10.5 µg/mL (≈ 30.3 µM). With `COc1ccc(-c2cc(CS(=O)(=O)c3ccccc3)on2)cc1`, the solubility (kinetic) was determined as 0.7 µg/mL (≈ 2.13 µM). `COc1ccccc1C(=O)OCC(=O)c1ccc(CNC(C)=O)s1` returned a solubility (kinetic) of 50.1 µg/mL (≈ 144 µM).

For the compound `O=C(CSc1nnc(-c2ccncc2)o1)N1CCCC1`, the kinetic solubility was greater than 43.6 µg/mL.

The compound `N#C/C(=C\C=C\c1ccccc1)C(=O)NCc1cccnc1` came in with a solubility (kinetic) of 6.3 µg/mL (≈ 21.8 µM). As for `CC(=O)N1CC(C(=O)Nc2ccc3c(c2)OCO3)Oc2ccccc21` (stereo not drawn), the figure is greater than 51.1 µg/mL; as for `Cc1onc(-c2c(Cl)cccc2Cl)c1C(=O)N1CCCCC1`, greater than 50.9 µg/mL. In the case of `O=C1N=C(N2CCOCC2)S/C1=C/c1cc2c(cc1[N+](=O)[O-])OCO2` it was 44.8 µg/mL (≈ 123 µM). `NS(=O)(=O)c1ccc(CCNC(=O)C2CCCO2)cc1` (stereo not drawn) gave a solubility (kinetic) greater than 44.8 µg/mL. As for `Cn1cccc/c1=N\c1cccc[n+]1C.[I-]`, the figure is greater than 49.1 µg/mL. In the case of `S=C(Nc1cccnc1)Nc1ccccn1` it was greater than 34.5 µg/mL. Consider `CCN(C(=O)CSc1nccc(=O)[nH]1)c1cccc2ccccc12`, for which the kinetic solubility is greater than 50.9 µg/mL. As for `CCC(=NCC1CCCO1)c1c(O)n(-c2ccccc2C)c(=O)[nH]c1=O` (stereo not drawn), the solubility (kinetic) was greater than 53.6 µg/mL.

In turn, `COc1ccc(OCC(O)CNC(=O)Nc2cccc3ccccc23)cc1` (stereo not drawn) gave a kinetic solubility of 4.3 µg/mL (≈ 11.7 µM). In the case of `N#CC1(NC(=O)COc2cccnc2[N+](=O)[O-])CCCCC1` it was greater than 45.6 µg/mL; in that of `O=C(O)CCCC(=O)NCc1c(Cl)cccc1Sc1ccc(Cl)cc1`, greater than 59.7 µg/mL. Consider `Cc1ccccc1N=Cc1cccc(O)c1O`, for which the kinetic solubility amounted to 20.9 µg/mL (≈ 92 µM). In the case of `CCCN(CC1CC1)C(=O)COC(=O)c1ccc(C)cc1O` it was greater than 45.8 µg/mL; in that of `O=C1c2ccccc2C(=O)N1OS(=O)(=O)c1ccc(F)cc1`, greater than 48.2 µg/mL.

Regarding `O=C(NCc1csc(-c2cccs2)n1)Nc1ccc(C(F)(F)F)cc1`, the kinetic solubility was less than 0.3 µg/mL. In the case of `O=C(Nc1ccccc1Br)c1c(F)cccc1Cl` it was 13.5 µg/mL (≈ 41.1 µM); in that of `O=C(CCNC(=O)c1ccco1)NCc1ccc(C(=O)O)cc1`, greater than 47.4 µg/mL; in that of `COc1cc(C(=S)N2CCCC2)ccc1OCc1ccc(C)cc1`, less than 0.7 µg/mL. `O=S(=O)(c1ccc2ccccc2c1)N1CCOCC1` had a solubility (kinetic) of 20.2 µg/mL (≈ 72.8 µM). In the case of `Cc1cc(SCc2c(F)cccc2Cl)nc(=O)[nH]1` it was 39.2 µg/mL (≈ 138 µM). As for `CCOCCCn1cnc2c3cc(F)ccc3n(C)c2c1=O`, the figure is 10.4 µg/mL (≈ 34.3 µM). The compound `O=C(COC(=O)CC1CC2CCC1C2)Nc1ccc(F)cc1Cl` (stereo not drawn) displayed a kinetic solubility of 13.2 µg/mL (≈ 38.8 µM).

`Cc1cc(C)cc(C(=O)N(C)C2CCCN(Cc3ccccc3F)C2)c1` (stereo not drawn) had a solubility (kinetic) greater than 53.2 µg/mL.

`O=C(CN1CCCC1)Nc1c(C(=O)C2CC2)oc2ccccc12` had a solubility (kinetic) of 31.8 µg/mL (≈ 102 µM). In the case of `O=C(NC1CCCCC1)c1ccc2[nH]c(=O)c(=O)[nH]c2c1` it was greater than 43.1 µg/mL; in that of `O=S(=O)(CCN1CCOCC1)c1ccccc1`, greater than 38.3 µg/mL. As for `Cc1ccc(C)c(NC(=O)c2ccc3nccnc3c2)c1`, the figure is 6.4 µg/mL (≈ 23.1 µM). On to `O=S(=O)(Nc1cccc2ccccc12)c1ccccc1F`, for which the solubility (kinetic) is 1.5 µg/mL (≈ 4.98 µM). In turn, `Cc1c(NC(=O)C(C)Oc2ccc(Br)cc2)c(=O)n(-c2ccccc2)n1C` (stereo not drawn) came in with a kinetic solubility greater than 64.5 µg/mL. As for `S=C1NCN(CCc2ccccc2)CN1`, the figure is greater than 33.2 µg/mL; as for `O=C(Nc1ccccc1)N1CCCC1c1cccs1` (stereo not drawn), 39.9 µg/mL (≈ 146 µM). Compound `Cc1onc(NC(=O)NC(=O)c2c(F)cccc2Cl)c1Br` displayed a kinetic solubility of 8.1 µg/mL (≈ 21.5 µM). In the case of `CN(C)Cc1ccccc1Sc1ccc2c(c1)CCCC2.O=C(O)C(=O)O` it was 5.5 µg/mL. In the case of `O=C1/C(=C\c2ccc(O)cc2)SC(=S)N1Cc1ccccc1` it was less than 0.7 µg/mL.

Regarding `CC1CN(S(=O)(=O)c2cc(C(=O)NC(C)c3cccnc3)ccc2Cl)CC(C)O1` (stereo not drawn), the kinetic solubility was greater than 65.7 µg/mL.

In the case of `Cc1ccc(SC(C)C(=O)NC(N)=O)c(C)c1` (stereo not drawn), the solubility (kinetic) came out at 7.7 µg/mL (≈ 30.5 µM). As for `CC(CNS(=O)(=O)c1ccccc1)Sc1ncccn1` (stereo not drawn), the figure is greater than 46.4 µg/mL. In the case of `COc1ccc2c(CCNC(N)=S)c[nH]c2c1` it was 17.7 µg/mL (≈ 71 µM); in that of `O=C(COC(=O)c1cc(=O)[nH]c2ccccc12)NCc1cccs1`, greater than 51.4 µg/mL.

On to `CCCCCC(=O)NC(=S)Nc1cccc(-c2nc3ncccc3o2)c1`, for which the kinetic solubility was less than 0.2 µg/mL. As for `O=C1CC2(CCN(C(=O)COc3ccc(F)cc3)CC2)Oc2ccccc21`, the figure is greater than 55.4 µg/mL; as for `CC(=O)c1ccc(OCC(=O)NC(=O)NC2CCCCC2)cc1`, 9.3 µg/mL (≈ 29.2 µM). For the compound `Cc1ccc(C(=O)NC(C)c2ccc(-n3ccnc3)cc2)cc1` (stereo not drawn), the solubility (kinetic) is greater than 45.8 µg/mL. In the case of `NC(CSCc1cccc(Br)c1)C(=O)O` (stereo not drawn) it was greater than 43.5 µg/mL; in that of `CC(=O)c1ccc(NC(=O)Cc2cccs2)cc1`, 37.2 µg/mL (≈ 143 µM); in that of `C/C(=N\NC(=O)c1ccccc1C)c1cccnc1`, greater than 38 µg/mL. In the case of `Cc1cc(C(=O)Nc2ccc([N+](=O)[O-])cn2)cs1`, the solubility (kinetic) was determined as 6.2 µg/mL (≈ 23.5 µM). In turn, `CCN(CC)CC(O)Cn1c(-c2ccccc2Cl)nc2ccccc21` (stereo not drawn) had a solubility (kinetic) greater than 53.7 µg/mL. With `O=C(NN=C1CCCC1)c1ccc(Cl)cc1`, the kinetic solubility is greater than 35.5 µg/mL. `NS(=O)(=O)c1cccc(NC(=O)CSc2nnc(-c3ccccc3)o2)c1` showed a kinetic solubility greater than 58.6 µg/mL. In the case of `CC1(C)C(=S)N(Cc2ccccc2)c2ccccc21` it was less than 0.6 µg/mL. In the case of `COc1ccc(C)cc1NC(=O)CCNC(=O)c1ccco1` it was greater than 45.3 µg/mL; in that of `CN(C)C(=S)Nc1ccc(S(=O)(=O)N2CCCCC2)cc1`, 47.1 µg/mL (≈ 144 µM); in that of `CC(=O)Nc1sc2c(c1C(N)=O)CCN(Cc1ccccc1)C2.Cl`, greater than 54.9 µg/mL. As for `CN(Cc1nc2ccccc2c(=O)[nH]1)C(=O)c1cccc(NC(=O)c2cccs2)c1`, the figure is greater than 62.8 µg/mL; as for `CCOC(=O)N1CCc2c(sc(N)c2C#N)C1`, 31.2 µg/mL (≈ 124 µM). The compound `Cc1ccccc1Nc1nc(-c2cccnc2)cs1` displayed a kinetic solubility of 11.2 µg/mL (≈ 41.9 µM). In the case of `COc1ccc(C(=O)C2CCN(CC(=O)Nc3ccccc3F)CC2)cc1` it was 4.5 µg/mL (≈ 12.1 µM). As for `NC(=O)C1CCN(C(=O)c2cc3ccccc3cc2O)CC1`, the figure is greater than 44.8 µg/mL. As for `CSc1nc(NCCCO)c2c3c(sc2n1)CN(C)CC3`, the figure is 41.7 µg/mL (≈ 129 µM); as for `Cc1ccc(Cl)c(OCC(=O)OCC(=O)c2ccc[nH]2)c1`, 8.7 µg/mL (≈ 28.3 µM); as for `O=C(C(=O)N1CCN(c2ccc(F)cc2)CC1)c1c[nH]c2ccccc12`, 6.9 µg/mL (≈ 19.6 µM). `CC(=O)c1ccc(NC(=O)CCNC(=O)c2ccccc2Cl)cc1` registered a solubility (kinetic) of 48.8 µg/mL (≈ 142 µM). As for `COC(C(=O)Nc1c(F)cccc1F)c1ccccc1` (stereo not drawn), the figure is greater than 41.6 µg/mL.

With `CC1CCCCN1C(=O)COC(=O)c1ccc(N2CCCC2=O)cc1` (stereo not drawn), the solubility (kinetic) is greater than 51.7 µg/mL. Regarding `Cc1noc(C)c1COC(=O)CNC(=O)c1cccc(F)c1`, the solubility (kinetic) came to 45.9 µg/mL (≈ 150 µM).

`CCCCCc1c(O)nc(SCCN(CC)CC)[nH]c1=O.Cl` returned a kinetic solubility greater than 52.5 µg/mL.

`Cc1ccc(NC(=O)C2CCCN2C(=O)OCc2ccccc2)c(C)c1` (stereo not drawn) gave a solubility (kinetic) of 18.5 µg/mL (≈ 52.5 µM).

Compound `O=C(CN1CCCC1)NC(=O)NC1CCCC1` yielded a kinetic solubility greater than 35.9 µg/mL. In the case of `CCOC(=O)CCCNC(=O)CCNC(=O)c1ccc(OCC(C)C)cc1` it was greater than 56.8 µg/mL; in that of `CCOC(=O)c1c(CC(C)C)csc1N`, 2.1 µg/mL (≈ 9.24 µM). In the case of `COc1ccc(CCNC(=O)COC(=O)CCC(=O)c2cccs2)cc1OC` it was greater than 60.8 µg/mL. In the case of `CCOC(=O)C1=C(C)NC(C)=C(C(=O)OCC)C1C(=O)OCC(=O)N(C)Cc1ccccc1` it was 2.8 µg/mL (≈ 6.11 µM).

The compound `Cn1c(/C=C/c2ccccc2[N+](=O)[O-])nc2ccccc2c1=O` yielded a solubility (kinetic) of 0.6 µg/mL (≈ 1.95 µM). In the case of `c1ccc(CNc2nc(-c3cccnc3)nc3ccccc23)cc1` it was 13.6 µg/mL (≈ 43.5 µM); in that of `CC(C)(C)C(=O)Nc1sc2c(c1C(=O)Nc1ccccn1)CCCC2`, less than 0.3 µg/mL. As for `COc1ccccc1NS(=O)(=O)c1ccc2[nH]c(=O)[nH]c2c1`, the figure is greater than 47.9 µg/mL; as for `Cc1ccc(NC(=S)NC(=O)C2CCCC2)c(Br)c1`, 4.2 µg/mL (≈ 12.3 µM). Compound `Cc1cc(C)nc(N2CCC(C(=O)NCc3ccccc3F)CC2)n1` returned a solubility (kinetic) of 0.3 µg/mL (≈ 0.876 µM).

In the case of `Cc1cccc(C(=O)OC(C)CN2CCN(C)CC2)c1.Cl` (stereo not drawn), the solubility (kinetic) was greater than 46.9 µg/mL. In the case of `Cl.NCCOc1ccc(C23CC4CC(CC(C4)C2)C3)cc1` it was greater than 46.2 µg/mL. As for `CC(C)Cc1nc2oc3c(Cl)ncnc3c2c2c1CCCC2`, the figure is less than 0.2 µg/mL; as for `O=S(=O)(NCc1ccc(Cl)cc1)c1cccc2cccnc12`, 43.2 µg/mL (≈ 130 µM). In the case of `CC(C)CCC1(CCNC(=O)c2cccs2)CCOC(C)(C)C1` (stereo not drawn) it was 22.4 µg/mL (≈ 66.4 µM); in that of `O=C(Nc1nccs1)C1=COCCO1`, greater than 31.8 µg/mL. Take `NS(=O)(=O)c1ccc(NC(=O)/C=C/c2ccco2)cc1`: the kinetic solubility was 36.3 µg/mL (≈ 124 µM).

`CCC(=O)Nc1ccc(C(=O)OCc2ccccc2)cc1` showed a kinetic solubility of 8.6 µg/mL (≈ 30.4 µM). `O=C(CCc1ccccc1)Nc1cccc(S(=O)(=O)N2CCOCC2)c1`: the solubility (kinetic) worked out at 50.6 µg/mL (≈ 135 µM). Take `NS(=O)(=O)c1ccc2c(c1)C(=NO)c1cc(S(N)(=O)=O)ccc1-2`: the kinetic solubility amounted to 4.6 µg/mL (≈ 13 µM). As to `COC(=O)CC1C(=O)NCCN1C(=O)c1ccc([N+](=O)[O-])cc1` (stereo not drawn), the solubility (kinetic) is greater than 48.2 µg/mL.

As to `CS(=O)(=O)N(CC(=O)NCCSC1CCCCC1)c1ccccc1`, the kinetic solubility is 40.5 µg/mL (≈ 109 µM). In the case of `N=C1C=CC=C2C1=NC1(CCCCC1)N2O` it was greater than 32.6 µg/mL; in that of `N#Cc1ccccc1NC(=O)COc1ccccc1C(=O)Nc1ccccc1`, 6.6 µg/mL (≈ 17.8 µM).
